Source: patent US20170245538A1, “SOLID DISPERSION OF AMIDE FLAVOR COMPOUNDS” (Firmenich SA, priority 2014, published 2017)

Assay: dissolution kinetics in water followed on-line by UV/Vis spectroscopy
Assay type: physicochemical
Conditions: 20 mg pure compound in 1L milli Q water at 60° C.
Procedure: The dissolution kinetics of example 4 in water was tested. A final concentration of (E)-3-(3,4-dimethoxyphenyl)-N-(4-methoxyphenethyl)acrylamide of 20 ppm dissolved in water was targeted. Eighty (80) mg of a solid dispersion of (E)-3-(3,4-dimethoxyphenyl)-N-(4-methoxyphenethyl)acrylamide and gum arabic was dispersed in 1L of milli Q water heated at 60° C. The solution was stirred mechanically by the means of a paddle stirrer at 200 rpm. The dissolution process was followed on-line by monitoring the UV signal of dissolved (E)-3-(3,4-dimethoxyphenyl)-N-(4-methoxyphenethyl)acrylamide with UV/Vis spectroscopy using a fiber optic probe from Ocean Optics. The powder was entirely dissolved after 2 minutes. The maximum dissolution rate during the process was 28 ppm/minute.
Comparative example: (E)-3-(3,4-dimethoxyphenyl)-N-(4-methoxyphenethyl)acrylamide pure. A final concentration of (E)-3-(3,4-dimethoxyphenyl)-N-(4-methoxyphenethyl)acrylamide of 20 ppm dissolved in water was targeted. Twenty (20) mg of the pure (E)-3-(3,4-dimethoxyphenyl)-N-(4-methoxyphenethyl)acrylamide were dispersed in 1L of milli Q water heated at 60° C. The dissolution process yielded 50% of the target concentration of 20 ppm (10 ppm) after 78 minutes. The target concentration could not be achieved after 6 hours. The concentration of dissolved (E)-3-(3,4-dimethoxyphenyl)-N-(4-methoxyphenethyl)acrylamide after 6 hours was 15 ppm (75% of target).

## COc1ccc(CCNC(=O)/C=C/c2ccc(OC)c(OC)c2)cc1 [(E)-3-(3,4-dimethoxyphenyl)-N-(4-methoxyphenethyl)acrylamide]
  time to 50% of the target concentration of 20 ppm (10 ppm): 78 min
After 6 hours
  concentration of dissolved compound after 6 hours: 15 ppm
After 6 hours, target 20 ppm
  dissolved compound after 6 hours as % of target: 75 % of target
Target could not be achieved
  time to achieve the target concentration (20 ppm): > 6 h
